Reference: ChEMBL document CHEMBL1154597, “1,1'-Disubstituted ferrocenes as molecular hinges in mono- and bivalent dopamine receptor ligands” (J Med Chem, 2009)

Columns and labels:
[1] = Displacement of [3H]prazosin from adrenergic alpha1 receptor in pig striatal membranes; type: cell membranes, Sus scrofa, Striatum, Membrane
[2] = target: 5-hydroxytryptamine receptor 2A (Sus scrofa, UniProt P50129); assay: Displacement of [3H]ketanserin from 5HT2 receptor in pig striatal membranes; type: cell membranes, Striatum, Membrane
Chain of 5-hydroxytryptamine receptor 2A (P50129 whole entry): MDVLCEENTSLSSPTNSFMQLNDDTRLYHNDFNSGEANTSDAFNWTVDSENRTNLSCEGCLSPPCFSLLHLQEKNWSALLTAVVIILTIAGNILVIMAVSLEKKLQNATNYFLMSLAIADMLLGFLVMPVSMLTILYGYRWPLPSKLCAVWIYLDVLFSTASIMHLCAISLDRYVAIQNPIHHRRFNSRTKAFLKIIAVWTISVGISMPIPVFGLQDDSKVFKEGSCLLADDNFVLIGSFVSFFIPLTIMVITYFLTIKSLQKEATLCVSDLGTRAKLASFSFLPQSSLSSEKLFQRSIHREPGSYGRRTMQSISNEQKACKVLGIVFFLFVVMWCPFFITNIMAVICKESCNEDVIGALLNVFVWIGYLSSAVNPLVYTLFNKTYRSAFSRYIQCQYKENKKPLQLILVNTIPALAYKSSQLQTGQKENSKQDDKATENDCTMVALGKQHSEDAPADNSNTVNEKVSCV

D(4) dopamine receptor = target: T1, D(4) dopamine receptor (Homo sapiens, UniProt P21917); assay: Displacement of [3H]spiperone from human cloned dopamine D4.4 receptor expressed in CHO cells; type: cell-based
T1 sequence (P21917 whole entry): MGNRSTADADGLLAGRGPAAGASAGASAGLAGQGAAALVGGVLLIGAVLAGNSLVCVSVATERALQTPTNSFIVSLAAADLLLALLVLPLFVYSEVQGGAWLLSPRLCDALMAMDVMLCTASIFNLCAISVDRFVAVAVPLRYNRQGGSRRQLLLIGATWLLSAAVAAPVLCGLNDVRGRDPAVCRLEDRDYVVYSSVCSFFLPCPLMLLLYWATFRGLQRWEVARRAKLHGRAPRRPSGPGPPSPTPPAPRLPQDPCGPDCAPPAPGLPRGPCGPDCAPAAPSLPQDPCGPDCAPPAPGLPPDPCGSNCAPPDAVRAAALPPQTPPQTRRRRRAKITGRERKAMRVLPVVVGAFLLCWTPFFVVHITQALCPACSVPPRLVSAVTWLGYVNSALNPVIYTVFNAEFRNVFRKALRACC

D(2) dopamine receptor [3] = target: T2, D(2) dopamine receptor (Homo sapiens, UniProt P14416); assay: Displacement of [3H]spiperone from human cloned dopamine D2short receptor expressed in CHO cells; type: cell-based
T2 sequence (P14416 whole entry): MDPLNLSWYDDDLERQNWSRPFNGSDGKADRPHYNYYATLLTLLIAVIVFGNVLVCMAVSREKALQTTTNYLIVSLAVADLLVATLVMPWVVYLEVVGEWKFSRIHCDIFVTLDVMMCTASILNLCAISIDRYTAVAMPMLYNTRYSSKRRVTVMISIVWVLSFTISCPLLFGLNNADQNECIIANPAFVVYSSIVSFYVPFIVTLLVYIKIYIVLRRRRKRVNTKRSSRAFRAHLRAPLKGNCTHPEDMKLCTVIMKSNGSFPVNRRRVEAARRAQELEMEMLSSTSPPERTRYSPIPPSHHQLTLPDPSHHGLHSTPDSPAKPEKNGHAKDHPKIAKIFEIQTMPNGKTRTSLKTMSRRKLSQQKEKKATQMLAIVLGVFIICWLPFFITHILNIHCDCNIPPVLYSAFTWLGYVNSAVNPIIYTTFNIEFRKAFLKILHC

D(1A) dopamine receptor = D(1A) dopamine receptor (Sus scrofa, UniProt P50130); assay: Displacement of [3H]SCH23390 from dopamine D1 receptor in pig striatal membranes; type: cell membranes, Striatum, Membrane
Chain of D(1A) dopamine receptor (P50130 whole entry): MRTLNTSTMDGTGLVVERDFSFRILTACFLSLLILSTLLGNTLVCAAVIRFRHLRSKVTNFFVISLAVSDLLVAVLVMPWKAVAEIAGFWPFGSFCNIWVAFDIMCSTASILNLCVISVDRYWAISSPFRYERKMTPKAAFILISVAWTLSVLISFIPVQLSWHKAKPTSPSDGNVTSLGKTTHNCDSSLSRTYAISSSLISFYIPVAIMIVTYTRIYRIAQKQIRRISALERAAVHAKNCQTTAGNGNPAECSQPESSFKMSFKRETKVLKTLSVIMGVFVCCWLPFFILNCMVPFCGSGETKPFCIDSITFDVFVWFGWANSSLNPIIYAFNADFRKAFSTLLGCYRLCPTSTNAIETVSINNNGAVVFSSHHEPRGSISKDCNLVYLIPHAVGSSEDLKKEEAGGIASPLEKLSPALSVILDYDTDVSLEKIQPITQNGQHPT

[4] = Displacement of [3H]WAY100635 from 5HT1A receptor in pig striatal membranes; type: cell membranes, Sus scrofa, Striatum, Membrane
D(2) dopamine receptor [5] = target: T2, D(2) dopamine receptor; assay: Displacement of [3H]spiperone from human cloned dopamine D2long receptor expressed in CHO cells; type: cell-based
D(3) dopamine receptor = D(3) dopamine receptor (Homo sapiens, UniProt P35462); assay: Displacement of [3H]spiperone from human cloned dopamine D3 receptor expressed in CHO cells; type: cell-based
Chain of D(3) dopamine receptor (P35462 whole entry): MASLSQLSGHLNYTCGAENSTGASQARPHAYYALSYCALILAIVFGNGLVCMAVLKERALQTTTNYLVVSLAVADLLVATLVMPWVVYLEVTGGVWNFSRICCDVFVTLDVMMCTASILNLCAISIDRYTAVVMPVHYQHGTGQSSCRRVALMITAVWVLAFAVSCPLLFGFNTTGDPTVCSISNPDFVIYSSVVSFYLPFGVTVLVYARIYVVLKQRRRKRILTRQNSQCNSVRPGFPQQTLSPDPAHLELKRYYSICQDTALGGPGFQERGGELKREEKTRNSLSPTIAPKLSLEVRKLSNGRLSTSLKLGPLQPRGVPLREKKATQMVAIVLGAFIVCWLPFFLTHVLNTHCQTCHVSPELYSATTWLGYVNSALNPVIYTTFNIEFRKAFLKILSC

Row | Ki [1] | Ki [2] | Ki (D(4) dopamine receptor) | Ki (D(2) dopamine receptor [3]) | Ki (D(1A) dopamine receptor) | Ki [4] | Ki (D(2) dopamine receptor [5]) | Ki (D(3) dopamine receptor) | SMILES
1 | 230 nM | 1700 nM | 850 nM | 770 nM | 9500 nM | 1200 nM | 2000 nM | 70 nM | COc1ccccc1N1CCN(CCCCNC(=O)c2ccc(-c3cn(Cc4ccc(-c5ccc(Cn6cc(-c7ccc(C(=O)NCCCCN8CCN(c9ccccc9OC)CC8)cc7)nn6)cc5)cc4)nn3)cc2)CC1
2 | 350 nM | 3400 nM | 3400 nM | 10000 nM | 3400 nM | 2500 nM | 15000 nM | 230 nM | COc1ccccc1N1CCN(CCCCNC(=O)c2cccc(-c3cn(Cc4ccc(-c5ccc(Cn6cc(-c7cccc(C(=O)NCCCCN8CCN(c9ccccc9OC)CC8)c7)nn6)cc5)cc4)nn3)c2)CC1
